Measurements published in paper PMC4744570 (Pharmaceutical research, 2015).

How the values were obtained:
[1] = Lung pharmacokinetic profiling in guinea pigs after intratracheal instillation; type: in vivo, guinea pigs (Cavia porcellus); conditions: male, guinea pig, 1.6 mg
[2] = parent drug; cited from earlier work
P. aeruginosa = conditions: cited from earlier work

- Cmax ([1]; inhaled or intranasal): > 70 µg/mL
- concentration at 3 h ([1]; other: intratracheal): < 1000 ng/mL
- concentration at 9 h ([1]; other: intratracheal): 12 ng/mL
- concentration at 12 h ([1]; other: intratracheal): 10 ng/mL
SMILES: C[C@@H](O)[C@H]1C(=O)N2C(C(=O)O)=C(S[C@@H]3CN[C@H](C(=O)N(C)C)C3)[C@H](C)[C@H]12 [meropenem]
- solubility (S) in water [2]: > 50 mg/mL
- MIC90 (P. aeruginosa): 8,000 ng/mL
